According to patent publication US4429127A, “Quinoline carboxylic acid derivative” (Kyorin Pharmaceutical Co., Ltd., priority 1981, dated 1984):
In brackets after ≈: the same amount, converted by molar mass. Where two headings read alike, the source gives them in different places.

Columns and labels:
[1] = test system: Bacillus subtilis PCI 219; assay: In vitro antibacterial activity (MIC, agar dilution); assay type: cell-based; settings: PCI219
Method: (§1) The minimum inhibitory concentration (MIC) of the compound (I) was determined by an agar dilution technique (the standard method of Japan Society of Chemotherapy) against standard strains of gram-positive and gram-negative bacteria.
(§2) Inoculum size: 10^8 cells/ml

E. coli ATCC10536 = assay: as above; assay type: cell-based; settings: Escherichia coli
Method: as §1, §2

E. coli NIHJ JC-2 = assay: as above; assay type: cell-based; settings: Escherichia coli, NIHJJC2
Method: as §1, §2

[2] = test system: Haemophilus influenzae IID986; assay: as above; assay type: cell-based
Method: as §1, §2

[3] = test system: Klebsiella pneumoniae IFO3512; assay: as above; assay type: cell-based
Method: as §1, §2

P. aeruginosa IFO12689 = assay: as above; assay type: cell-based; settings: Pseudomonas aeruginosa
Method: as §1, §2

Proteus vulgaris IFO3167 = assay: as above; assay type: cell-based
Method: as §1, §2

[4] = test system: Pseudomonas aeruginosa V-1; assay: as above; assay type: cell-based; settings: V1
Method: as §1, §2

[5] = test system: S. aureus IID670 (Terajima); assay: as above; assay type: cell-based; settings: Staphylococcus aureus
Method: as §1, §2

S. faecalis IID682 = assay: as above; assay type: cell-based; settings: Enterococcus faecalis
Method: as §1, §2

S. pneumoniae IID552 = assay: as above; assay type: cell-based; settings: Streptococcus pneumoniae
Method: as §1, §2

S. pyogenes S-8 = assay: as above; assay type: cell-based; settings: Streptococcus pyogenes, S8
Method: as §1, §2

[6] = test system: Salmonella enteritidis IID604; assay: as above; assay type: cell-based; settings: Salmonella enterica
Method: as §1, §2

Shigella sonnei IID969 = assay: as above; assay type: cell-based; settings: inoculum 10^8 cells/ml
Method: as §1, §2

[7] = test system: Staphylococcus aureus 209P; assay: as above; assay type: cell-based
Method: as §1, §2

[8] = test system: Streptococcus pyogenes IID692; assay: as above; assay type: cell-based
Method: as §1, §2

E. coli ML4707 [9] = assay: MIC against the infecting strain (Table 2); assay type: cell-based; settings: Escherichia coli, ML4707
Method: as §1

[10] = test system: Staphylococcus aureus Smith; assay: MIC against the infecting strain (Table 2); assay type: cell-based
Method: as §1

E. coli ML4707 [11] = assay: In vivo antibacterial activity, systemic infection in mice; design: species or system mice (male, ICR); settings: Escherichia coli
Method: (§3) The in vivo antibacterial activity of the compound (I) was determined in systemic infection in mice. The systemic infections were produced in male mice ICR (body weight, 19±2 g) by inoculating intraperitoneally with Staphylococcus aureus Smith and E. coli ML4707. The compounds were administered orally in divided doses at 0 and 4 hrs. after infection. The therapeutic effect of drugs was judged from the number of mice surviving after 7 days of observation. A comparison of in vivo antibacterial activity was made on the basis of the […] effective dose (ED50) calculated by the method of Litchfield and Wilcoxon.

[12] = test system: Staphylococcus aureus Smith; assay: as above; design: species or system mice (male, ICR); settings: Staphylococcus aureus, 168 h
Method: as §3

gram-positive bacteria [13] = assay: In vitro antibacterial activity against gram-positive bacteria (in words); assay type: cell-based
Method: as §1

gram-negative bacteria [14] = assay: In vitro antibacterial activity against gram-negative bacteria (in words); assay type: cell-based; settings: for Antibacterial activity on gram-negative bacteria, in words: in vitro
Method: as §1

Streptococcus spp. = assay: In vitro antibacterial activity against Streptococcus spp. (in words); assay type: cell-based
Method: as §1

gram-negative bacteria [15] = settings: background; cited from earlier work
gram-positive bacteria [16] = settings: background; cited from earlier work
[17] = test system: Acinetobacter enitratus IID876; assay: In vitro antibacterial activity (MIC, agar dilution); assay type: cell-based; settings: inoculum 10^8 cells/ml
Method: as §1, §2

[18] = test system: Alcaligenes faecalis 0104002; assay: as above; assay type: cell-based; settings: inoculum 10^8 cells/ml
Method: as §1, §2

[19] = test system: Citrobacter freundii IID976; assay: as above; assay type: cell-based; settings: inoculum 10^8 cells/ml
Method: as §1, §2

[20] = test system: Enterobacter cloacae IID977; assay: as above; assay type: cell-based; settings: inoculum 10^8 cells/ml
Method: as §1, §2

P. mirabilis IID994 = assay: as above; assay type: cell-based; settings: Proteus mirabilis, inoculum 10^8 cells/ml
Method: as §1, §2

P. morganii IID602 = assay: as above; assay type: cell-based; settings: Morganella morganii, inoculum 10^8 cells/ml
Method: as §1, §2

S. epidermidis IID866 = assay: as above; assay type: cell-based; settings: Staphylococcus epidermidis, inoculum 10^8 cells/ml
Method: as §1, §2

[21] = test system: Serratia marcescens IID618; assay: as above; assay type: cell-based; settings: inoculum 10^8 cells/ml
Method: as §1, §2

[22] = test system: Yersinia enterocolitica IID981; assay: as above; assay type: cell-based; settings: inoculum 10^8 cells/ml
Method: as §1, §2

[23] = Bacillus subtilis PCI 219, inoculum 10^8 cells/ml, read-out: MIC
[24] = P. aeruginosa IFO12689, inoculum 10^8 cells/ml, read-out: MIC
[25] = Proteus vulgaris IFO3167, inoculum 10^8 cells/ml, read-out: MIC
[26] = Pseudomonas aeruginosa V-1, inoculum 10^8 cells/ml, read-out: MIC
[27] = S. aureus IID670 (Terajima), inoculum 10^8 cells/ml, read-out: MIC
[28] = S. faecalis IID682, inoculum 10^8 cells/ml, read-out: MIC
[29] = S. pneumoniae IID552, inoculum 10^8 cells/ml, read-out: MIC
[30] = S. pyogenes S-8, inoculum 10^8 cells/ml, read-out: MIC
[31] = Salmonella enteritidis IID604, inoculum 10^8 cells/ml, read-out: MIC
[32] = Staphylococcus aureus 209P, inoculum 10^8 cells/ml, read-out: MIC
[33] = Streptococcus pyogenes IID692, inoculum 10^8 cells/ml, read-out: MIC

Compound	MIC [1, 23] [µg/mL]	MIC (E. coli ATCC10536; ATCC10536) [µg/mL]	MIC (E. coli NIHJ JC-2) [µg/mL]	MIC ([3]; Klebsiella pneumoniae, IFO3512) [µg/mL]	MIC (P. aeruginosa IFO12689; [24]) [µg/mL]	MIC (Proteus vulgaris IFO3167; [25]) [µg/mL]	MIC [4, 26] [µg/mL]	MIC [5, 27] [µg/mL]	MIC (S. faecalis IID682; [28]) [µg/mL]	MIC (S. pneumoniae IID552; [29]) [µg/mL]	MIC (S. pyogenes S-8; [30]) [µg/mL]	MIC [6, 31] [µg/mL]	MIC (Shigella sonnei IID969) [µg/mL]	MIC [7, 32] [µg/mL]	MIC [8, 33] [µg/mL]	MIC (E. coli ML4707 [9]) [µg/mL]	Antibacterial activity on gram-positive bacteria, in words (gram-positive bacteria [13])	Antibacterial activity on gram-negative bacteria, in words (gram-negative bacteria [14])	Effectiveness in therapy of infections due to gram-negative bacteria, in words (gram-negative bacteria [15])	Activity against most gram-positive bacteria, in words (gram-positive bacteria [16])	also measured
CCn1cc(C(=O)O)c(=O)c2cnc(N3CCNCC3)nc21 [PPA, Pipemidic acid]	6.25 (≈ 20.6 µM)	1.56 (≈ 5.14 µM)	1.56 (≈ 5.14 µM)	1.56 (≈ 5.14 µM)	25 (≈ 82.4 µM)	3.13 (≈ 10.3 µM)	12.5 (≈ 41.2 µM)	25 (≈ 82.4 µM)	> 100	> 100	> 100	12.5 (≈ 41.2 µM)	1.56 (≈ 5.14 µM)	25 (≈ 82.4 µM)	> 100	1.56 (≈ 5.14 µM)	inactive on many strains of gram-positive bacteria	exerted antibacterial activity mainly on gram-negative bacteria	highly effective in the therapy of infections due to gram-negative bacteria	only weak activities against most gram-positive bacteria	MIC ([2]; Haemophilus influenzae IID986, inoculum 10^8 cells/ml, read-out: MIC): 3.13 µg/mL (≈ 10.3 µM); MIC ([10]; Staphylococcus aureus Smith, read-out: MIC): 12.5 µg/mL (≈ 41.2 µM); ED50 (E. coli ML4707 [11]; ML4707, 168 h, mice, oral at 0 and 4 hrs. after infection, challenge 1.2 × 10^7 cells/animal in saline, 7 days survival, read-out: ED50): 38.9 mg/kg; ED50 ([12]; mice, oral at 0 and 4 hrs. after infection, challenge 2.4 × 10^5 cells/animal in BHI containing mucin, 7 days survival, read-out: ED50): 231 mg/kg; Susceptibility of Streptococcus spp., in words (Streptococcus spp.): not susceptible
CCn1cc(C(=O)O)c(=O)c2cnc(N3CCCC3)nc21 [piromidic acid]	–	–	–	–	–	–	–	–	–	–	–	–	–	–	–	–	–	–	highly effective in the therapy of infections due to gram-negative bacteria	only weak activities against most gram-positive bacteria	–
CCn1cc(C(=O)O)c(=O)c2ccc(C)nc21 [NA, Nalidixic acid]	–	3.13 (≈ 13.5 µM)	3.13 (≈ 13.5 µM)	1.56 (≈ 6.72 µM)	–	–	–	–	–	–	–	–	1.56 (≈ 6.72 µM)	–	–	3.13 (≈ 13.5 µM)	inactive on many strains of gram-positive bacteria	exerted antibacterial activity mainly on gram-negative bacteria	highly effective in the therapy of infections due to gram-negative bacteria	only weak activities against most gram-positive bacteria	MIC ([1]; Bacillus subtilis): 6.25 µg/mL (≈ 26.9 µM); MIC ([2]; Haemophilus influenzae, IID986): 1.56 µg/mL (≈ 6.72 µM); MIC (P. aeruginosa IFO12689; IFO12689): > 100 µg/mL; MIC (Proteus vulgaris IFO3167; Proteus vulgaris, IFO3167): 3.13 µg/mL (≈ 13.5 µM); MIC ([4]; Pseudomonas aeruginosa): 100 µg/mL (≈ 431 µM); MIC ([5]; IID670): > 100 µg/mL; MIC (S. faecalis IID682; IID682): > 100 µg/mL; MIC (S. pneumoniae IID552; IID552): > 100 µg/mL; MIC (S. pyogenes S-8): > 100 µg/mL; MIC [6]: 12.5 µg/mL (≈ 53.8 µM); MIC ([7]; Staphylococcus aureus, 209P): 100 µg/mL (≈ 431 µM); MIC ([8]; Streptococcus pyogenes, IID692): > 100 µg/mL; MIC ([10]; Staphylococcus aureus): 25 µg/mL (≈ 108 µM); ED50 (E. coli ML4707 [11]; ML4707, po, 168 h): 38.3 mg/kg; ED50 ([12]; po): 635 mg/kg; Susceptibility of Streptococcus spp., in words (Streptococcus spp.): not susceptible
CCn1cc(C(=O)O)c(=O)c2cc(F)c(N3CCNCC3)c(F)c21 [Metabolite, 1-ethyl-6,8-difluoro-1,4-dihydro-4-oxo-7-(1-piperazinyl)quinoline-3-carboxylic acid]	0.2 (≈ 0.593 µM)	–	–	–	1.56 (≈ 4.62 µM)	0.05 (≈ 0.148 µM)	0.78 (≈ 2.31 µM)	0.78 (≈ 2.31 µM)	3.13 (≈ 9.28 µM)	6.25 (≈ 18.5 µM)	12.5 (≈ 37.1 µM)	0.1 (≈ 0.296 µM)	0.05 (≈ 0.148 µM)	0.78 (≈ 2.31 µM)	3.13 (≈ 9.28 µM)	–	–	–	–	–	MIC [17]: 0.78 µg/mL (≈ 2.31 µM); MIC [18]: 0.78 µg/mL (≈ 2.31 µM); MIC [19]: 0.1 µg/mL (≈ 0.296 µM); MIC (E. coli ATCC10536; E. coli ATCC10536, inoculum 10^8 cells/ml, read-out: MIC): 0.05 µg/mL (≈ 0.148 µM); MIC (E. coli NIHJ JC-2; E. coli NIHJ JC-2, inoculum 10^8 cells/ml, read-out: MIC): 0.05 µg/mL (≈ 0.148 µM); MIC [20]: 0.1 µg/mL (≈ 0.296 µM); MIC ([2]; Haemophilus influenzae, IID986): 0.025 µg/mL (≈ 0.0741 µM); MIC ([3]; Klebsiella pneumoniae IFO3512, inoculum 10^8 cells/ml, read-out: MIC): 0.05 µg/mL (≈ 0.148 µM); MIC (P. mirabilis IID994): 0.05 µg/mL (≈ 0.148 µM); MIC (P. morganii IID602): 0.1 µg/mL (≈ 0.296 µM); MIC (S. epidermidis IID866): 0.78 µg/mL (≈ 2.31 µM); MIC [21]: 0.1 µg/mL (≈ 0.296 µM); MIC [22]: 0.1 µg/mL (≈ 0.296 µM); Activity of the metabolite against gram-negative bacteria, in words (gram-negative bacteria [14]; general statement): superior activity against gram-negative bacteria
